# Data: patent US20230416199A1, “INHIBITORS OF AMINO ACID TRANSPORT” (ICAHN SCHOOL OF MEDICINE AT MOUNT SINAI, priority 2020, published 2023)
# Like-named read-outs stand apart in the source and are kept apart here.
# Columns and labels:
# Type in all cases: cell-based
# hASCT2 [1] = biological target: T1, hASCT2 (Homo sapiens, UniProt Q15758); test: Electrophysiology (whole-cell current recording) of transfected HEK293 cells, hASCT2
# T1 construct: expressed in transfected cells; host or cells: HEK293 (ATCC CRL-11268), transient transfection
# T1 sequence (Q15758 1-541): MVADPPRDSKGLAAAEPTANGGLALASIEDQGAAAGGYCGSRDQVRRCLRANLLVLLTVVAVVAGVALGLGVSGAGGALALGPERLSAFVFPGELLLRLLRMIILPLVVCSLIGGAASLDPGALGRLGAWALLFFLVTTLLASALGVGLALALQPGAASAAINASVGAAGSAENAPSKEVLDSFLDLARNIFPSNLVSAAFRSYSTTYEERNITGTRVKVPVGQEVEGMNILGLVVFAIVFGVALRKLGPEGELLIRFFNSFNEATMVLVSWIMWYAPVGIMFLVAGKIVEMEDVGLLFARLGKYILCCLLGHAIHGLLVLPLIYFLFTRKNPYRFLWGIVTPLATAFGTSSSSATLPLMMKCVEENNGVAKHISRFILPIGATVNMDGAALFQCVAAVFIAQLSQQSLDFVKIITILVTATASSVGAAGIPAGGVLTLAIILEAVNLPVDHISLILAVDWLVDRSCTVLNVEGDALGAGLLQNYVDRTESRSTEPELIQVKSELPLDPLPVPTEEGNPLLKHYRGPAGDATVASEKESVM
# Procedure: (§1) Human embryonic kidney 293 (HEK293, ATCC CRL-11268) cells were cultured in DMEM media supplemented with 10% (v v) fetal bovine serum (FBS), 2 mM glutamine, 1% penicillin streptomycin solution, 1 mM sodium pyruvate and non-essential amino acids. Cells were maintained at 37° C. in a fully humidified atmosphere containing 5% CO2. rASCT2, hASCT2, hASCT1, EAAT1, EAAT2, EAAC1, EAAT5 and YFP complementary DNAs were each used to transiently transfect HEK293 using POLYPLUS Jet-prime transfection reagent. Cells were analyzed using electrophysiological techniques 24-40 hours after transfection.
# (§2) Stock solutions of inhibitor was prepared in dimethyl sulfoxide (DMSO) up to 100 mM. Dilutions to working concentrations were made using external buffer. […] For rASCT2, hASCT2 and hASCT1, external buffer contained 140 mM NaCl, 2 mM MgCl2, 2 mM CaCl2), and 10 mM HEPES, pH 7.40 while internal pipette solution comprised of 130 mM NaSCN, 2 mM MgCl2, 10 mM EGTA, 10 mM HEPES and 10 mM alanine, pH 7.40. For specificity experiments with EAAT1, EAAT2, EAAC1 and EAAT5, internal solution contained 10 mM glutamate instead of alanine. Compounds were applied to HEK293 cells expressing DNA of interest suspended from a current recording electrode in whole cell configuration through a rapid solution exchange device. Cells are immersed in external buffer bath used to dissolve the inhibitors. The open pipette resistance was between 3 and 6 MΩ. Series resistance was not compensated in these experiments due to relatively small currents. Currents traces were recorded using an Adams and List EPC7 amplifier and digitized using a Molecular Devices Digidata A/D converter.
# (§3) Linear and nonlinear curve fitting of the experimental data were analyzed using MicroCal Origin software. Nonlinear dose-response relationships were fitted with a Michaelis-Menten-like equation to obtain apparent Ki values in the absence of substrate (see TABLE 2 for Ki values). The figures show representative current traces and dose-response curves for hACST2 and rASCT2, used to obtain Ki values in TABLE 2 for compound SN 40. At least four experiments were performed with at least three different cells. Error bars in all graphs, e.g., in FIG. 1B and FIG. 1C and tables (Ki values) represent mean±SD.
# rASCT2 [2] = biological target: T2, rASCT2 (Rattus norvegicus, UniProt D3ZJ25); test: Electrophysiology (whole-cell current recording) of transfected HEK293 cells, rASCT2
# T2 construct: expressed in transfected cells; host or cells: HEK293 (ATCC CRL-11268), transient transfection
# T2 sequence (D3ZJ25 1-555): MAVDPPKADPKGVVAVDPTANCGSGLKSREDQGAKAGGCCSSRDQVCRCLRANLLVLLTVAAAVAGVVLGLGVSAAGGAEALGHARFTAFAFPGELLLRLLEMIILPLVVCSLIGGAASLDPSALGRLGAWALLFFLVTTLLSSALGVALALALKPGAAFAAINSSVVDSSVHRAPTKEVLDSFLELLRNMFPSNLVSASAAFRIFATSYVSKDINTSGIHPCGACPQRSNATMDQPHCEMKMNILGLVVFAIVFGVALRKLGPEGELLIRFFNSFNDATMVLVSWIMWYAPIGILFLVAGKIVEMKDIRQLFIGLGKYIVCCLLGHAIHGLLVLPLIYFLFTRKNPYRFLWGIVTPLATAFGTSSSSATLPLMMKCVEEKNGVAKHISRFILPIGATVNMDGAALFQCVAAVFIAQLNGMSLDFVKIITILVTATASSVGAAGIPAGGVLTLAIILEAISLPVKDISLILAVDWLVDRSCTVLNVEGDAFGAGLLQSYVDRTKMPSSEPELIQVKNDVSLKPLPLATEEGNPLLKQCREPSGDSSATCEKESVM
# Procedure: as §1, §2, §3
# EAAC1 = biological target: T3, EAAC1 (UniProt P51907); test: Electrophysiology specificity experiment in transfected HEK293 cells, EAAC1; details: apparent Ki, HEK293, internal solution 10 mM glutamate, mean ± SD
# T3 construct: Ki EAAC1; other: apparent Ki, HEK293, internal solution 10 mM glutamate, mean ± SD
# T3 sequence (P51907 1-523): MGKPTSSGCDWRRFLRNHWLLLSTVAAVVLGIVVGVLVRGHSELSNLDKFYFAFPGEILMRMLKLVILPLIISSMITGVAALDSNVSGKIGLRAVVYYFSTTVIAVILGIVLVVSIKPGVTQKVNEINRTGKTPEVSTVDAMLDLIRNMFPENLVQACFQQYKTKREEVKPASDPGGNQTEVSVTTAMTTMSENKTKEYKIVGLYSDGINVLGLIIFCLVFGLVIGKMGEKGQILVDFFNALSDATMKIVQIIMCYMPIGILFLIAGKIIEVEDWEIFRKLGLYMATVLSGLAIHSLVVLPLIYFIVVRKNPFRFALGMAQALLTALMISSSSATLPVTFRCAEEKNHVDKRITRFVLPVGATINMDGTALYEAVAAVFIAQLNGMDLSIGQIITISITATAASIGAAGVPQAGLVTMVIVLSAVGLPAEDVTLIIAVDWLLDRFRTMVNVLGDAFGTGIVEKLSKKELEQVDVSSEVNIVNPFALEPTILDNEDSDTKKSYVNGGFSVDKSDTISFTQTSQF
# Procedure: Cells were maintained at 37° C. in a fully humidified atmosphere containing 5% CO2. rASCT2, hASCT2, hASCT1, EAAT1, EAAT2, EAAC1, EAAT5 and YFP complementary DNAs were each used to transiently transfect HEK293 using POLYPLUS Jet-prime transfection reagent. Cells were analyzed using electrophysiological techniques 24-40 hours after transfection.
# as §2
# Linear and nonlinear curve fitting of the experimental data were analyzed using MicroCal Origin software. Nonlinear dose-response relationships were fitted with a Michaelis-Menten-like equation to obtain apparent Ki values in the absence of substrate (see TABLE 2 for Ki values). […] At least four experiments were performed with at least three different cells. Error bars in all graphs, e.g., in FIG. 1B and FIG. 1C and tables (Ki values) represent mean±SD.
# EAAT1 = biological target: T4, EAAT1 (Homo sapiens, UniProt P43003); test: Electrophysiology specificity experiment in transfected HEK293 cells, EAAT1; details: apparent Ki, HEK293, internal solution 10 mM glutamate, mean ± SD
# T4 construct: expressed in transfected cells; host or cells: HEK293 (ATCC CRL-11268), transient transfection
# T4 sequence (P43003 whole entry, species assumed): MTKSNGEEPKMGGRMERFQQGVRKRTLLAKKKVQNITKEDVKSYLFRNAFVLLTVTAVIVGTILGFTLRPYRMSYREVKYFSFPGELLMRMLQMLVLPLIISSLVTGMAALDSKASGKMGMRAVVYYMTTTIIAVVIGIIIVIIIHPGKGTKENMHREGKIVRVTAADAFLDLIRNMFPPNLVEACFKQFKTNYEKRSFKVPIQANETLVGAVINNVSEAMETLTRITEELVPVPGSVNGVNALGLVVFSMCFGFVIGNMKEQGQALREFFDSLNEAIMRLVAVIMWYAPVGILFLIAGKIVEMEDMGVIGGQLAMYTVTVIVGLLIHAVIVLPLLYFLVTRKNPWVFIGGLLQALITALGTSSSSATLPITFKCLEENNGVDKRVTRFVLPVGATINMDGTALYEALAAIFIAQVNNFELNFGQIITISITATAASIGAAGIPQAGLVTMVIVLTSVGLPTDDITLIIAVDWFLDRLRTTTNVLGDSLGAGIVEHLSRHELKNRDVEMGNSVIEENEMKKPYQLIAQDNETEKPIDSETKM
# Procedure: as §1, §2, §3
# EAAT5 = biological target: T5, EAAT5 (Homo sapiens, UniProt O00341); test: Electrophysiology specificity experiment in transfected HEK293 cells, EAAT5; details: apparent Ki, HEK293, internal solution 10 mM glutamate, mean ± SD
# T5 construct: expressed in transfected cells; host or cells: HEK293 (ATCC CRL-11268), transient transfection
# T5 sequence (O00341 whole entry, species assumed): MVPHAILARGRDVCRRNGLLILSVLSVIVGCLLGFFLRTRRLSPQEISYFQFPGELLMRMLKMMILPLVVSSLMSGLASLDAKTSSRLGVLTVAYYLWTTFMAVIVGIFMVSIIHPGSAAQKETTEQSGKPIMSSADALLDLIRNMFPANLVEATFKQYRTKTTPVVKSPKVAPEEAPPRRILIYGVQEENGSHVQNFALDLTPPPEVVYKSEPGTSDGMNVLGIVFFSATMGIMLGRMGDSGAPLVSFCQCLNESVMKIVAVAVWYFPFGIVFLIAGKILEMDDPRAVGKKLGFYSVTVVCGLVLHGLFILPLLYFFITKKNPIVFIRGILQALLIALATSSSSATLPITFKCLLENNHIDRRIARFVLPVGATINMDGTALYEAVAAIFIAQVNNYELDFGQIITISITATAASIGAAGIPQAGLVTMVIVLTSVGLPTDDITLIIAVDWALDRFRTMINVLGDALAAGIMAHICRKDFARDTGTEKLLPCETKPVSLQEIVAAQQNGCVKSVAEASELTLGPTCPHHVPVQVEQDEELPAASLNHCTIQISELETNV
# Procedure: as §1, §2, §3
# hASCT1 = biological target: T6, hASCT1 (Homo sapiens, UniProt P43007); test: Electrophysiology (whole-cell current recording) of transfected HEK293 cells, hASCT1
# T6 construct: expressed in transfected cells; host or cells: HEK293 (ATCC CRL-11268), transient transfection
# T6 sequence (P43007 1-532): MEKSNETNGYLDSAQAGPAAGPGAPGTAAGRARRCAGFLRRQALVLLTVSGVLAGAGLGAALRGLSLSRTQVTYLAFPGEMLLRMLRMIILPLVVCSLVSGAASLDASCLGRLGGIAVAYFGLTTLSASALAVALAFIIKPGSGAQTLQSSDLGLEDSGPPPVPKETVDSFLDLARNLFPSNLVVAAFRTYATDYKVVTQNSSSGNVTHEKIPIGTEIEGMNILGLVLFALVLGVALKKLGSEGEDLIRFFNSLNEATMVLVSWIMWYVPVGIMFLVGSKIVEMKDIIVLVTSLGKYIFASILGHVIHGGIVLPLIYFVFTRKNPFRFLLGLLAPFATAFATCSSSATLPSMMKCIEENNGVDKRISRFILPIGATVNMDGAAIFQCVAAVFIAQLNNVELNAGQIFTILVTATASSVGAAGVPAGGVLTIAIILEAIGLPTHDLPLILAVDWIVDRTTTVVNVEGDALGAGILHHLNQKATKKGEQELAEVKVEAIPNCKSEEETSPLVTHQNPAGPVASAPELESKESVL
# Procedure: as §1, §2, §3
# rASCT2 [3] = biological target: T2, rASCT2; test: Competition experiment with alanine, rASCT2; details: second entry of the cell; for Competition Expt % block (given as a decimal): rASCT2: decimal fraction; for Ki: read-out: Competition Expt (h/rASCT2 Ki): rASCT2 Ki
# hASCT2 [4] = biological target: T1, hASCT2; test: Competition experiment with alanine, hASCT2; details: first entry of the cell; for Ki: read-out: Competition Expt (h/rASCT2 Ki): hASCT2 Ki
# EAAT2 = biological target: T7, EAAT2 (Homo sapiens, UniProt P43004); test: Electrophysiology specificity experiment in transfected HEK293 cells, EAAT2
# T7 construct: expressed in transfected cells; host or cells: HEK293 (ATCC CRL-11268), transient transfection
# T7 sequence (P43004 whole entry, species assumed): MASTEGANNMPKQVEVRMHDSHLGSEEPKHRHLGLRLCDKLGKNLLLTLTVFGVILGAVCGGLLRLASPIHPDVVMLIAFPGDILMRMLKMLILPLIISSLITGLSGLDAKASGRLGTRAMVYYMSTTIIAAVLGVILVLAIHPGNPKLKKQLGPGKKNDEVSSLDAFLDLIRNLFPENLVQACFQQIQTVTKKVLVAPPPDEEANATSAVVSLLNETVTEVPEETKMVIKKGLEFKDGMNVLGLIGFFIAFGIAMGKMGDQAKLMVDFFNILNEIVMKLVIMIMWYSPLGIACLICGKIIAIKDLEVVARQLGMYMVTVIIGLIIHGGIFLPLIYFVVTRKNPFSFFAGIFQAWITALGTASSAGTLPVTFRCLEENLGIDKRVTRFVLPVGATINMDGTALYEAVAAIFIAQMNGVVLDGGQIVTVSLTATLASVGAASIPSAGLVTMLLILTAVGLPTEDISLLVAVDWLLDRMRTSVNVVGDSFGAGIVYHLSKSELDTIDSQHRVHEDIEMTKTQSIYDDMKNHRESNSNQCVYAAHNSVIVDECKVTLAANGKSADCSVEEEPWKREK
# Procedure: as §1, §2, §3
# [5] = apparent Ki in the absence of substrate, HEK293, mean ± SD, read-out: Ki hASCT2
# [6] = apparent Ki in the absence of substrate, HEK293, mean ± SD, read-out: Ki rASCT2
# [7] = apparent Ki in the absence of substrate, HEK293, mean ± SD, read-out: Ki hASCT1
# [8] = Table 3, dihydroxyproline derivatives, read-out: Ki All DNA: hASCT2
# [9] = Table 3, dihydroxyproline derivatives, read-out: Ki All DNA: rASCT2
# [10] = Table 3, dihydroxyproline derivatives, read-out: Ki All DNA: hASCT1
# [11] = apparent Ki, HEK293, internal solution 10 mM glutamate, mean ± SD, read-out: Ki EAAT2
SMILES,Ki (hASCT2 [1]; [5]) [µM],Ki (rASCT2 [2]; [6]) [µM],Ki (EAAT1) [µM],Ki (EAAT5) [µM],Competition Expt % block (given as a decimal): rASCT2 (rASCT2 [3]; 0.5 mM ala),"Competition Expt % block (given as a decimal): hASCT2 (hASCT2 [4]; 0.5 mM ala, decimal fraction)",Ki (hASCT2 [1]; [8]) [µM],Ki (hASCT2 [4]; 1 mM ala) [µM],Ki (rASCT2 [2]; [9]) [µM],other results
O=C(O)[C@H]1NC[C@@H](NCc2ccc(-c3ccccc3)cc2)[C@@H]1O [SN 50],1.61 ± 0.2,1.34 ± 0.1,2.71 ± 0.7,–,–,–,–,–,–,Ki (EAAC1): 20.1 ± 6.2 µM
O=C(Nc1cccc(C(=O)O[C@@H]2CN[C@H](C(=O)O)C2)c1)c1ccccc1 [SN 16],0.39 ± 0.1,0.11 ± 0.04,49.4 ± 9.7,566 ± 188,–,–,–,–,–,Ki (hASCT1; [7]): 10.1 ± 0.6 µM
O=C(O[C@@]1(CO)CN[C@H](C(=O)O)C1)c1ccc(-c2ccccc2)cc1 [SN77],–,–,–,–,0.5,0.5,–,–,–,Ki (rASCT2 [3]; 0.5 mM ala): 12.9 µM; Ki (hASCT2 [4]; 0.5 mM ala): 20.3 µM
O=C(OC[C@]1(O)CN[C@H](C(=O)O)C1)c1ccc(-c2ccc(F)cc2)cc1 [SN66],–,–,–,–,–,–,15.5,28,27.6,Ki (rASCT2 [3]; 1 mM ala): 49 µM
O=C(OC[C@]1(O)CN[C@H](C(=O)O)C1)c1ccc(-c2ccccc2)cc1 [SN65],–,–,–,–,0.4,0.8,30.5,–,25.8,Ki (rASCT2 [3]; 0.5 mM ala): 170 µM; Ki (hASCT2 [4]; 0.5 mM ala): 52.2 µM; Ki (hASCT1; [10]): 59.2 µM
O=C(OC[C@]1(O)CN[C@H](C(=O)O)C1)c1ccc(-c2ccc(C(F)(F)F)cc2)cc1 [SN67],–,–,–,–,0,0,115,–,–,"Ki All DNA: hASCT1 (hASCT1; Table 3, dihydroxyproline derivatives): NA, NC"
O=C(O)[C@@H]1C[C@H](NCc2ccc(-c3ccccc3)cc2)CN1 [SN 40],2.42 ± 0.1,7.29 ± 1.8,2.94 ± 0.4,5.55 ± 0.7,–,–,–,–,–,Ki (EAAT2; [11]): 5.55 ± 1.7 µM; Ki (EAAC1): 24.4 ± 2.5 µM
O=C(O[C@@H]1CN[C@H](C(=O)O)C1)c1ccc(C(=O)c2ccccc2)cc1 [SN 12],21.4 ± 3.2,6.66 ± 1.2,21.2 ± 4.5,13.8 ± 2.7,–,–,–,–,–,Ki (EAAT2; [11]): 15.4 ± 4.9 µM; Ki (hASCT1; [7]): 6.86 ± 1.1 µM
O=C(OC[C@@]1(O)CN[C@H](C(=O)O)C1)c1ccc(-c2ccccc2)cc1 [SN57],–,–,–,–,–,–,4.55,40,3.87,Competition Expt % block (given as a decimal): hASCT2 (hASCT2 [4]; 1 mM ala): full; Ki (hASCT1; [10]): 6.61 µM
O=C(O[C@]1(CO)CN[C@H](C(=O)O)C1)c1ccc(-c2ccccc2)cc1 [SN73],–,–,–,–,–,–,4.25,22.3,8.03,"Competition Expt % block (given as a decimal): hASCT2 (hASCT2 [4]; 1 mM ala): full; Ki (EAAT2; Table 3, dihydroxyproline derivatives, read-out: Ki All DNA: EAAT2): 21.4 µM"
